# Structures can show the parent of a compound that is named as a salt.
# Tests used:
# Assay type in all cases: biochemical
# Bovine LOX = Bovine LOX (Bos taurus (Bovine), UniProt P33072); experiment: LOX inhibition, Amplex Red oxidation assay; settings: 30 min preincubation at 37 °C, putrescine substrate
# Description: Lysyl oxidase (LOX) is an extracellular copper dependent enzyme which oxidizes peptidyl lysine and hydroxylysine residues in collagen and lysine residues in elastin to produce peptidyl alpha-aminoadipic-delta-semialdehydes. […] There are five LOX family members; these are LOX, LOXL1, LOXL2, LOXL3 and LOXL4. LOX and LOXL family members can be acquired as recombinant active proteins from commercial sources, or extracted from animal tissues like bovine aorta, tendons, pig skin; or prepared from cell cultures. The inhibitory effects of the compounds of the present invention were tested against the given LOX-LOXL preparation using a method based on the detection of hydrogen peroxide with an Amplex Red oxidation assay (Zhou et al. A stable nonfluorescent derivative of resorufin for the fluorometric determination of trace hydrogen peroxide: applications in detecting the activity of phagocyte NADPH oxidase and other oxidases. Anal. Biochem. 1997; 253, 162-168). The assay was developed using either 384 or 96 well format. Briefly, in a standard black, clear bottom 384 well plate assay 25 μL of a dilution of any of the isoenzymes and orthologues in 1.2 M urea, 50 mM sodium borate buffer (pH 8.2) were added into each well in the presence of 1 μM mofegiline and 0.5 mM pargyline (to inhibit SSAO and MAO-B and MAO-A, respectively; not necessary if the enzyme is from a recombinant or purified form). […] Twenty five μL of a reaction mixture containing twice the KM concentration of putrescine (Sigma Aldrich, e.g. 20 mM for LOX, or 10 mM for LOXL2 and LOXL3), 120 μM Amplex Red (Sigma Aldrich) and 1.5 U/mL horseradish peroxidase (Sigma Aldrich) prepared in 1.2 M urea, 50 mM sodium borate buffer (pH 8.2) were then added to the corresponding wells. The above volumes were doubled in the case of 96 wells plate. The fluorescence (RFU) was read every 2.5 min for 30 min at […] 37° C., excitation 565 nm and emission 590 (Optima; BMG labtech). The slope of the kinetics for each well was calculated using MARS data analysis software (BMG labtech) and this value was used to deduce the IC50 value (Dotmatics).
# LOXL2 = LOXL2 (Homo sapiens (Human), UniProt Q9Y4K0); experiment: LOXL2 inhibition, Amplex Red oxidation assay; settings: 30 min preincubation at 37 °C, putrescine substrate
# Description: Lysyl oxidase (LOX) is an extracellular copper dependent enzyme which oxidizes peptidyl lysine and hydroxylysine residues in collagen and lysine residues in elastin to produce peptidyl alpha-aminoadipic-delta-semialdehydes. […] There are five LOX family members; these are LOX, LOXL1, LOXL2, LOXL3 and LOXL4. LOX and LOXL family members can be acquired as recombinant active proteins from commercial sources, or extracted from animal tissues like bovine aorta, tendons, pig skin; or prepared from cell cultures. The inhibitory effects of the compounds of the present invention were tested against the given LOX-LOXL preparation using a method based on the detection of hydrogen peroxide with an Amplex Red oxidation assay (Zhou et al. A stable nonfluorescent derivative of resorufin for the fluorometric determination of trace hydrogen peroxide: applications in detecting the activity of phagocyte NADPH oxidase and other oxidases. Anal. Biochem. 1997; 253, 162-168). The assay was developed using either 384 or 96 well format. Briefly, in a standard black, clear bottom 384 well plate assay 25 μL of a dilution of any of the isoenzymes and orthologues in 1.2 M urea, 50 mM sodium borate buffer (pH 8.2) were added into each well in the presence of 1 μM mofegiline and 0.5 mM pargyline (to inhibit SSAO and MAO-B and MAO-A, respectively; not necessary if the enzyme is from a recombinant or purified form). Test compounds were dissolved in DMSO and tested in a Concentration Response Curve (CRC) with 11 data points, typically in the micromolar or nanomolar range after incubation with the enzyme for 30 min at 37° C. Twenty five μL of a reaction mixture containing twice the KM concentration of putrescine (Sigma Aldrich, e.g. 20 mM for LOX, or 10 mM for LOXL2 and LOXL3), 120 μM Amplex Red (Sigma Aldrich) and 1.5 U/mL horseradish peroxidase (Sigma Aldrich) prepared in 1.2 M urea, 50 mM sodium borate buffer (pH 8.2) were then added to the corresponding wells. The above volumes were doubled in the case of 96 wells plate. The fluorescence (RFU) was read every 2.5 min for 30 min at […] 37° C., excitation 565 nm and emission 590 (Optima; BMG labtech). The slope of the kinetics for each well was calculated using MARS data analysis software (BMG labtech) and this value was used to deduce the IC50 value (Dotmatics).
# [1] = target: Human recombinant SSAO/VAP-1 (Homo sapiens (Human), UniProt Q16853); experiment: Inhibition of human recombinant SSAO/VAP-1; settings: 30 min preincubation at 37 °C, benzylamine 600 μM; read-out: SSAO/VAP-1 Activity IC50
# Description: Human recombinant SSAO/VAP-1 amine oxidase activity was determined using the coupled colorimetric method as described for monoamine oxidase, copper-containing amine oxidases and related enzymes (Holt A. and Palcic M., A peroxidase-coupled continuous absorbance plate-reader assay for flavin monoamine oxidases, copper-containing amine oxidases and related enzymes. Nat Protoc 2006; 1: 2498-2505). Briefly, a cloned cDNA template corresponding to residues 34-763 of human SSAO/VAP-1, and incorporating a mouse Ig kappa (κ) signal sequence, N-terminal flag epitope tag and tobacco etch virus (TEV) cleavage site, was assembled in a mammalian expression vector (pLO-CMV) by Geneart AG. This vector containing human SSAO/VAP-1 residues was transfected into CHO-Kl glycosylation mutant cell line, Lec 8. A clone stably expressing human SSAO/VAP-1 was isolated and cultured in large scale. Active human SSAO/VAP-1 was purified and recovered using immunoaffinity chromatography. This was used as the source for SSAO/VAP-1 activity. A high-throughput colorimetric assay was developed using either 96 or 384 well format. Briefly, in a standard 96 well plate assay 50 μL of purified human SSAO/VAP-1 (0.25 μg/mL) in 0.1 M sodium phosphate buffer (pH 7.4) was added into each well. Test compounds were dissolved in DMSO and tested in a Concentration Response Curve (CRC) with 4-11 data points, typically in the micromolar or nanomolar range after incubation with human SSAO/VAP-1 for 30 min at 37° C. After 30 min incubation, 50 μL of the reaction mixture containing 600 μM benzylamine (Sigma Aldrich), 120 μM Amplex Red (Sigma Aldrich) and 1.5 U/mL horseradish peroxidase (Sigma Aldrich) prepared in 0.1 M sodium phosphate buffer (pH 7.4) were added to the corresponding well. The fluorescence unit (RFU) was read every 2.5 min for 30 min at 37° C. excitation 565 nm and emission 590 (Optima; BMG labtech). The slope of the kinetics for each well was calculated using MARS data analysis software (BMG labtech) and this value was used to deduce the IC50 value (Dotmatics).
# Recombinant human MAO-B = Recombinant human MAO-B (Homo sapiens (Human), UniProt P27338); experiment: Inhibition of human recombinant MAO-B; settings: benzylamine 100 μM
# Description: The specificity of the compounds of this invention was tested by determining their ability to inhibit MAO-B activities in vitro. Recombinant human MAO-B (0.06 mg/mL; Sigma Aldrich) was used as source of MAO-B enzyme activities. The assay was performed in a similar way as for human SSAO/VAP-1 (Example 28) except, the substrate benzylamine was used at 100 μM.
# LOXL1 = LOXL1 (Homo sapiens (Human), UniProt Q08397); experiment: Jump dilution experiment, sustained inhibition of LOXL1; settings: jump dilution after 40 min at 37 °C with 10× or 30× IC50; vs non-inhibited controls;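 further: 30× IC50 used only where needed so inhibitor exceeds enzyme concentration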
# Description: Jump Dilution experiment: The assay was developed using a 96 well format and the starting enzyme concentration was set 100 times higher than for the inhibition studies. […] After the incubation, the mixture was diluted 50× in assay buffer, followed by a further 2× dilution in Amplex Red-horseradish peroxidase-putrescine reaction mix (same as per the inhibition studies) prior to the fluorescent measurement. Results were expressed in % recovery of the signal after a specified time by comparison with non-inhibited controls.
# Recombinant human MAO-B, sequence (P27338 whole entry): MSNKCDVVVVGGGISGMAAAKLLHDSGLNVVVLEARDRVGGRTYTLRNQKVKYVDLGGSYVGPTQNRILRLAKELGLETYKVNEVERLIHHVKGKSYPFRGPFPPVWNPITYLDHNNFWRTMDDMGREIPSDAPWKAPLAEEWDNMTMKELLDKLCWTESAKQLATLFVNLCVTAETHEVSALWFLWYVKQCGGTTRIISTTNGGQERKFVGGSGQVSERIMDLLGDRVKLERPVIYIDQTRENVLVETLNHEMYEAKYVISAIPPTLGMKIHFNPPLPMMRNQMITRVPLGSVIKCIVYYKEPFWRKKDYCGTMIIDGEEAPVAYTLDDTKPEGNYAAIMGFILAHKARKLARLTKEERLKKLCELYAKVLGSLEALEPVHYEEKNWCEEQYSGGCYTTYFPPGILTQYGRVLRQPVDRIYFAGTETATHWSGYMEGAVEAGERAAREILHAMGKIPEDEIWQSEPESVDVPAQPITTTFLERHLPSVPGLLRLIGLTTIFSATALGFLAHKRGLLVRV
# Human recombinant SSAO/VAP-1, sequence (Q16853 34-763): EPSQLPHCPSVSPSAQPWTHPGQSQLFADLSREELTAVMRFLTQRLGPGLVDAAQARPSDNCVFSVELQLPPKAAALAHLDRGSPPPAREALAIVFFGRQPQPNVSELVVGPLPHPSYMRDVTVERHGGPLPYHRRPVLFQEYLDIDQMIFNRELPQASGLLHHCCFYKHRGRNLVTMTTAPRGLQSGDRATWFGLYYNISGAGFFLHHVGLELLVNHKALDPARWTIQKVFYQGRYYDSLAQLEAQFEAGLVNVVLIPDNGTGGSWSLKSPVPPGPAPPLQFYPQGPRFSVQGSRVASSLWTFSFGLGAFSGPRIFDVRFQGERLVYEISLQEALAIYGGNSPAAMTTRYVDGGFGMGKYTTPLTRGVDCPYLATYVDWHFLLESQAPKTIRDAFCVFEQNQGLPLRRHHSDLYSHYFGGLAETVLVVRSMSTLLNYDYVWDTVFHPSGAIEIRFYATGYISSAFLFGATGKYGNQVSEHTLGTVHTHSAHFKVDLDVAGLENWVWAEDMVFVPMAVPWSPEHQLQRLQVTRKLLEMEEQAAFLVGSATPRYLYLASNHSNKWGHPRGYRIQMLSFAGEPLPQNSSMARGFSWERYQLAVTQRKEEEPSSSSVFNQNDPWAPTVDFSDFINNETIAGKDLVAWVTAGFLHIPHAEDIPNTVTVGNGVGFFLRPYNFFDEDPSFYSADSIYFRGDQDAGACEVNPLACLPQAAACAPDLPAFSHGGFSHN
# LOXL2, sequence (Q9Y4K0 26-774): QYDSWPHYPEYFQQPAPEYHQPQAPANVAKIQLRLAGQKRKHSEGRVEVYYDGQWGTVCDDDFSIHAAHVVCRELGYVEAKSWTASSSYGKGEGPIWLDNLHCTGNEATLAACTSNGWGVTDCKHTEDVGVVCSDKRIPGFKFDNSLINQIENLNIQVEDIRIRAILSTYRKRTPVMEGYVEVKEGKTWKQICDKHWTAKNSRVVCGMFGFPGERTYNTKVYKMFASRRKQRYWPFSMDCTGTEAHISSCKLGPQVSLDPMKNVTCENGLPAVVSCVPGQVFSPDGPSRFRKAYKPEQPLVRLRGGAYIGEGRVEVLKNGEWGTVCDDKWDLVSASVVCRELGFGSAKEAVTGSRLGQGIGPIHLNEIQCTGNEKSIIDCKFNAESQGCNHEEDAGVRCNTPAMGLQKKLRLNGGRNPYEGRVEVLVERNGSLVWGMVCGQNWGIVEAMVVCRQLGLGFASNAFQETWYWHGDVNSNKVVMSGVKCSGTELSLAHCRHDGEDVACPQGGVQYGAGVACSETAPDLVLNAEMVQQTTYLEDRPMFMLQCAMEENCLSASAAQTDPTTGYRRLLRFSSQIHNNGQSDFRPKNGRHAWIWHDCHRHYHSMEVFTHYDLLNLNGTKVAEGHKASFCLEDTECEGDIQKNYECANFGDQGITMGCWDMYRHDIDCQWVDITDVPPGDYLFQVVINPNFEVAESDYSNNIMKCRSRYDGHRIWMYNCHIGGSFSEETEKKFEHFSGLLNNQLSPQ
# Bovine LOX, sequence (P33072 170-418): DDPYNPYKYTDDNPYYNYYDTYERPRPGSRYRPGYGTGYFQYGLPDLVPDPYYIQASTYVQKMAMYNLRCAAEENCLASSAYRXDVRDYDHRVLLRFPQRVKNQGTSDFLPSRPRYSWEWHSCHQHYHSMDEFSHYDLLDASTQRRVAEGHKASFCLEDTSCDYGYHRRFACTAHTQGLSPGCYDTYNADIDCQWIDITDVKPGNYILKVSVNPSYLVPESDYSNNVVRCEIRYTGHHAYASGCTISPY
# LOXL1, sequence (Q08397 96-574, species assumed): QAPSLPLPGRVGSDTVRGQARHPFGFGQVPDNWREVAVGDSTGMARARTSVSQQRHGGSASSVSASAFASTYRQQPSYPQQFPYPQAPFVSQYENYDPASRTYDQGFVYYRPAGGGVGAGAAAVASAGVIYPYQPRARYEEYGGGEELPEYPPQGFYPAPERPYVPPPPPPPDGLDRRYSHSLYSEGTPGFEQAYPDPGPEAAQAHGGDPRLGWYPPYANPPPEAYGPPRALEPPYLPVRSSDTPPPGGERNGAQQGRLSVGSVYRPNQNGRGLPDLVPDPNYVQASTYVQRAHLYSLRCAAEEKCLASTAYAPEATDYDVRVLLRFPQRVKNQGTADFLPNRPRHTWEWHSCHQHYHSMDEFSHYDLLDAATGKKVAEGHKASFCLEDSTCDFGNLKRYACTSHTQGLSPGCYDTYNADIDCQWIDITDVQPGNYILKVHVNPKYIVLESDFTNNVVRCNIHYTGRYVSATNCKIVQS
Structure (SMILES),IC50 (Bovine LOX),IC50 (LOXL2),IC50 [1],IC50 (Recombinant human MAO-B),LOXL1 - Recovery of activity. (%) (LOXL1)
"NC/C=C(\F)CS(=O)(=O)c1cc(C(F)(F)F)cc(C(F)(F)F)c1 [Compound 2, (Z)-4-((3,5-bis(trifluoromethyl)phenyl)sulfonyl)-3-fluorobut-2-en-1-amine hydrochloride]",< 10 µM,< 10 µM,> 30 µM,> 30 µM,
"CS(=O)(=O)c1ccc(S(=O)(=O)C/C(F)=C/CN)cc1 [Compound 3, (Z)-3-fluoro-4-((4-(methylsulfonyl)phenyl)sulfonyl)but-2-en-1-amine]",< 10 µM,< 10 µM,> 30 µM,> 30 µM,
"NC/C=C(\F)CS(=O)(=O)c1ccccc1OCc1ccccc1 [Compound 7, (Z)-4-((2-(benzyloxy)phenyl)sulfonyl)-3-fluorobut-2-en-1-amine hydrochloride]",< 10 µM,< 1 µM,> 30 µM,> 30 µM,3.0%
"NC/C=C(\F)CS(=O)(=O)c1ccccc1OCc1ccc(S(N)(=O)=O)cc1 [Compound 8, (Z)-4-((2-((4-amino-2-fluorobut-2-en-1-yl)sulfonyl)phenoxy)methyl)benzenesulfonamide hydrochloride]",< 1 µM,< 1 µM,> 30 µM,> 30 µM,35.1%
"CC(C)N(C(C)C)S(=O)(=O)c1ccc(COc2ccccc2S(=O)(=O)C/C(F)=C/CN)cc1 [Compound 11, (Z)-4-((2-((4-amino-2-fluorobut-2-en-1-yl)sulfonyl)phenoxy)methyl)-N,N-diisopropylbenzenesulfonamide hydrochloride]",< 1 µM,< 1 µM,> 30 µM,> 30 µM,10.2%
"CC(C)NS(=O)(=O)c1ccc(COc2ccccc2S(=O)(=O)C/C(F)=C/CN)cc1 [Compound 14, (Z)-4-((2-((4-amino-2-fluorobut-2-en-1-yl)sulfonyl)phenoxy)methyl)-N-isopropylbenzenesulfonamide hydrochloride]",< 1 µM,< 1 µM,> 30 µM,> 30 µM,1.9%
"CC(C)N(C(C)C)S(=O)(=O)c1ccc(NC(=O)c2ccccc2S(=O)(=O)C/C(F)=C/CN)cc1 [Compound 15, (Z)-2-((4-amino-2-fluorobut-2-en-1-yl)sulfonyl)-N-(4-(N,N-diisopropylsulfamoyl)phenyl)benzamide hydrochloride]",< 10 µM,< 1 µM,> 30 µM,> 30 µM,26.1%
"NC/C=C(\F)CS(=O)(=O)c1ccncc1 [Compound 29, (Z)-3-fluoro-4-(pyridin-4-ylsulfonyl)but-2-en-1-amine dihydrochloride]",< 10 µM,< 1 µM,,,8.6%
"NC/C=C(\F)CS(=O)(=O)c1ccccn1 [Compound 30, (Z)-3-fluoro-4-(pyridin-2-ylsulfonyl)but-2-en-1-amine dihydrochloride]",< 10 µM,< 1 µM,,,1.9%
"NC/C=C(\F)CS(=O)(=O)c1ccc2ccccc2n1 [Compound 32, (Z)-3-fluoro-4-(quinolin-2-ylsulfonyl)but-2-en-1-amine dihydrochloride]",< 10 µM,< 1 µM,,> 30 µM,
"NC/C=C(\F)CS(=O)(=O)c1cccc(F)c1 [Compound 38, (Z)-3-fluoro-4-(3-fluorophenylsulfonyl)but-2-en-1-amine hydrochloride]",< 10 µM,< 1 µM,,,1.6%
"CC(C)c1ncccc1S(=O)(=O)C/C(F)=C/CN [Compound 45, (Z)-3-fluoro-4-(2-isopropylpyridin-3-ylsulfonyl)but-2-en-1-amine dihydrochloride]",< 10 µM,< 1 µM,> 30 µM,,6.6%
"Cc1ccc(S(=O)(=O)C/C(F)=C/CN)cn1 [Compound 46, (Z)-3-fluoro-4-(6-methylpyridin-3-ylsulfonyl)but-2-en-1-amine dihydrochloride]",< 10 µM,< 1 µM,,,1.0%
"Cc1nc2c(S(=O)(=O)C/C(F)=C/CN)cccc2s1 [Compound 50, (Z)-3-fluoro-4-((2-methylbenzo[d]thiazol-4-yl)sulfonyl)but-2-en-1-amine hydrochloride]",< 10 µM,< 1 µM,> 30 µM,,
"NC/C=C(\F)CS(=O)(=O)c1cccc2cc(F)cnc12 [Compound 51, (Z)-3-fluoro-4-((3-fluoroquinolin-8-yl)sulfonyl)but-2-en-1-amine dihydrochloride]",< 10 µM,< 1 µM,> 10 µM,> 30 µM,
